The test system of experiment [1] is SMO L416F mutant cell line. In words: C3H10T1/2 cell differentiation assay in SMO L416F mutant cell line versus wild type. It is filed as cell-based, mouse. To be noted: for Fold reduction in potency in SMO L416F mutant cell line: SMO L416F mutant cell line compared to the wild type, C3H10T1/2 cell differentiation assay. From the text: FIG. 1 is a graph of the percent inhibition of C3H10T1/2 cell differentiation of vismodegib compared to compound of the invention (compound number 174), in wild type versus SMO L416F mutant cell line.
Loss of Potency in C3H10T1/2 Cell Differentiation Assay Associated with Presence of SMO L416F Mutation.
Table 3 below details the number of fold reduction in potency of a range of compounds of the invention when applied to the SMO L416F mutant cell line compared to the wild type. SMO mutation has been described in the literature (Pricl, Sabrina, et al.) as a key mutation causative of vismodegib resistance in the clinic by interfering with drug binding.

The subject of the next experiment is C3H10T1/2 cells. Put plainly: C3H assay: differentiation of C3H10T1/2 cells by mSHH, measurement of alkaline phosphatase. It is filed as cell-based, mouse. To be noted: C3H10T1/2 cells stimulated with mSHH for 72 hours, alkaline phosphatase activity, read-out: IC50 Ranges.
Another experiment has as its target T1, SMO (Homo sapiens, UniProt Q99835).
T1 construct: expressed in transfected cells; host or cells: HEK293
In words: Smoothened (SMO) binding fluorescence polarisation assay (BODIPY-cyclopamine competition). As to conditions: SMO binding FP assay versus C3H10T1/2 cellular assay. On the procedure:
Standard Protocol for Smoothened (SMO) Binding Fluorescence Polarisation Assay.
The assay measures the ability of the test compounds to compete with a fluorescently-labelled version of the known ligand, cyclopamine, for binding to SMO. The fluorescent tag used is BODIPY (boron dipyrromethene).
An aliquot of a membrane preparation from a SMO-over-expressing HEK293 cell line is diluted to protein concentration of 0.117 mg/ml in assay buffer (25 mM HEPES, 2 mM EDTA, 0.05% γ-globulin, 0.01% pluronic acid pH7.4, plus protease Inhibitor cocktail). 8.5 μl of the membrane suspension is added to each well of a black, low volume 384 well microtitre plate.
Test compounds are added in a seven point dilution range to the wells containing the membrane preparation. The final DMSO solvent concentration in the wells is maintained at 0.3%. 6.5 μl of a 6.9 nM BODIPY-cyclopamine solution is added to each of the wells (final assay concentration 3 nM).
The plate is sealed and stored in the dark at room temperature for 24 hours prior to measurement of the fluorescence polarisation signal on a Perkin Elmer Envision multi-label reader.
Table 4 below details the ratio of SMO binding compared to the potency in the C3H10T1/2 cellular assay. The small ratio between SMO binding and potency for vismodegib is considered to be reflective of the fact vismodegib acts mainly through inhibition of the SMO protein. The larger ratios for the compound of the invention are considered to be reflective of alternate actions outside of direct SMO inhibition.

This is an account of results in patent publication US10961238B2, “Modulators of hedgehog (Hh) signaling pathway” (E-THERAPEUTICS PLC, priority 2016, dated 2021).

Like-named read-outs stand apart in the source and are kept apart here.

T1 sequence (Q99835 28-787): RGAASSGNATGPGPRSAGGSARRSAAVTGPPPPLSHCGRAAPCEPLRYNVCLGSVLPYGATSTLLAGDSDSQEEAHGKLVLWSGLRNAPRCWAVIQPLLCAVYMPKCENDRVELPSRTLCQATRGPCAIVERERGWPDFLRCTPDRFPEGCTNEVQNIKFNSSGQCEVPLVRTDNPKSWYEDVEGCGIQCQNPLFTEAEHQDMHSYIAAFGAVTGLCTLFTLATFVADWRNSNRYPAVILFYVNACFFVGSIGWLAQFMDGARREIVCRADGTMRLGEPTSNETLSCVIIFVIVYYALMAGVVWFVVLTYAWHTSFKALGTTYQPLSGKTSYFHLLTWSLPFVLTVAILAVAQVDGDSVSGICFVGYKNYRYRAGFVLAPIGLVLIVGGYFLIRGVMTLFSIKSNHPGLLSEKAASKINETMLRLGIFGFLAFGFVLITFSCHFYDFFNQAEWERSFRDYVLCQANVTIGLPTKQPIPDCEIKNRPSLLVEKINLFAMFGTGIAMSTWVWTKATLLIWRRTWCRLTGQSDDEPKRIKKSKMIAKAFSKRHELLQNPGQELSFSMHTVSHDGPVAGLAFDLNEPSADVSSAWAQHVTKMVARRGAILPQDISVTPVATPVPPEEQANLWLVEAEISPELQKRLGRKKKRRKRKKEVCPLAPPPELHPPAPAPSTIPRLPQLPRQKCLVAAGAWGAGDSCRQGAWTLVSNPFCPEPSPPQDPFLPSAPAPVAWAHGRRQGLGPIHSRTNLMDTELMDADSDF

For the compound `CC(C)C(CO)NC(=O)N1CC(S(=O)(=O)N2CCC(c3c[nH]c4ncccc34)CC2)C1` (racemic) [Compound 26, N-[1-(Hydroxymethyl)-2-methyl-propyl]-3-[[4-(1H-pyrrolo[2,3-b]pyridin-3-yl)-1-piperidyl]sulfonyl]azetidine-1-carboxamide], in experiment [1], the “Fold reduction in potency in SMO L416F mutant cell line” value (“Fold reduction in potency” for short) turned out to be 67. For the same compound, the half-maximal inhibitory concentration (IC50) with C3H10T1/2 cells (Mus musculus, C3H 10T1/2) was 10 to 100 nM.
On the same counts, the results for `O=C(OC1CCCCC1)N1CC(S(=O)(=O)N2CCC(c3c[nH]c4ncccc34)CC2)C1` [Compound 75, cyclohexyl 3-[4-(1H-pyrrolo[2,3-b]pyridin-3-yl)piperidin-1-yl]sulfonylaze-tidine-1-carboxylate] are 60 and 10 to 100 nM.
For the compound `O=C(NCCc1cccs1)N1CC(S(=O)(=O)N2CCC(c3c[nH]c4ncccc34)CC2)C1` [Compound 84, 3-[4-(1H-pyrrolo[2,3-b]pyridin-3-yl)piperidin-1-yl]sulfonyl-N-(2-thiophen-2-ylethyl)azetidine-1-carboxamide], the “Fold reduction in potency” value in experiment [1] stood at 50. Besides, in the experiment with C3H10T1/2 cells (Mus musculus, C3H 10T1/2), the IC50 is 10 to 100 nM.
The matching figures for `O=C(N1CCOCC1)N1CC(S(=O)(=O)N2CCC(c3c[nH]c4ncccc34)CC2)C1` [Compound 88, morpholin-4-yl-[3-[4-(1H-pyrrolo[2,3-b]pyridin-3-yl)piperidin-1-yl]sulfonylaze-tidin-1-yl]methanone]: 27 and 100 to 1000 nM.
As to `Cc1noc(C)c1NC(=O)N1CC(S(=O)(=O)N2CCC(c3c[nH]c4ncccc34)CC2)C1` [Compound 120, N-(3,5-dimethyl-1,2-oxazol-4-yl)-3-[4-(1H-pyrrolo[2,3-b]pyridin-3-yl)piperidin-1-yl]sulfonylaze-tidine-1-carboxamide], in experiment [1], the “Fold reduction in potency” value is reported as 38. The IC50 with C3H10T1/2 cells (Mus musculus, C3H 10T1/2) lay in the range of 10 to 100 nM.
`Cc1noc(C)c1OC(=O)N1CC(S(=O)(=O)N2CCC(c3c[nH]c4ncccc34)CC2)C1` [Compound 160, (3,5-dimethyl-1,2-oxazol-4-yl) 3-[4-(1H-pyrrolo[2,3-b]pyridin-3-yl)piperidin-1-yl]sulfonylaze-tidine-1-carboxylate]: in experiment [1], the “Fold reduction in potency” value is 29. The half-maximal inhibitory concentration (IC50) with C3H10T1/2 cells (Mus musculus, C3H 10T1/2) is less than 10 nM.
The matching figures for `CC(C)[C@H]1CC[C@H](C)C[C@@H]1OC(=O)N1CC(S(=O)(=O)N2CCC(c3c[nH]c4ncccc34)CC2)C1` [Compound 166, [(1S,2R,5S)-5-methyl-2-propan-2-ylcyclohexyl] 3-[4-(1H-pyrrolo[2,3-b]pyridin-3-yl)piperidin-1-yl]sulfonylaze-tidine-1-carboxylate]: 51 and less than 10 nM.
The matching figures for `O=C(OCC1CCCCC1)N1CC(S(=O)(=O)N2CCC(c3c[nH]c4ncccc34)CC2)C1` [Compound 168, cyclohexylmethyl 3-[4-(1H-pyrrolo[2,3-b]pyridin-3-yl)piperidin-1-yl]sulfonylaze-tidine-1-carboxylate]: 33 and 10 to 100 nM.
With `O=C(NC12CC3CC(CC(C3)C1)C2)N1CC(S(=O)(=O)N2CCC(c3c[nH]c4ncccc34)CC2)C1` [Compound 171, N-(1-adamantyl)-3-[4-(1H-pyrrolo [2,3-b]pyridin-3-yl)piperidin-1-yl]sulfonylaze-tidine-1-carboxamide], the “Fold reduction in potency” value in experiment [1] is 38. For the same compound, in the experiment with C3H10T1/2 cells, the half-inhibitory concentration (IC50) is less than 10 nM.
With `CC(C)(C)NC(=S)N1CC(S(=O)(=O)N2CCC(c3c[nH]c4ncccc34)CC2)C1` [Compound 174, N-tert-butyl-3-[4-(1H-pyrrolo[2,3-b]pyridin-3-yl)piperidin-1-yl]sulfonylaze-tidine-1-carbothioamide], in experiment [1] (FIG. 1, compared to vismodegib, wild type versus SMO L416F mutant cell line), the “percent inhibition of C3H10T1/2 cell differentiation” value was “a lower concentration of compound 174 is required to achieve the same percent inhibition of differentiation”. Moreover, the IC50 with C3H10T1/2 cells (Mus musculus, C3H 10T1/2) lay in the range of 10 to 100 nM.
`CC(C)(C)CC(C)(C)NC(=O)N1CC(S(=O)(=O)N2CCC(c3c[nH]c4ncccc34)CC2)C1` [Compound 175, 3-[4-(1H-pyrrolo[2,3-b]pyridin-3-yl)piperidin-1-yl]sulfonyl-N-(2,4,4-trimethylpentan-2-yl)azetidine-1-carboxamide]: the “Fold reduction in potency” value in experiment [1] is 40. The 50% inhibitory concentration (IC50) in the experiment with C3H10T1/2 cells (Mus musculus, C3H 10T1/2) was less than 10 nM.
As for `CC(C)(C)OC(=O)N1CC(S(=O)(=O)N2CCC(c3csc4ncccc34)CC2)C1` [Compound 177, tert-butyl 3-(4-thieno [2,3-b]pyridin-3-ylpiperidin-1-yl)sulfonylaze-tidine-1-carboxylate], the “Fold reduction in potency” value in experiment [1] is given as 37. In the experiment with C3H10T1/2 cells (Mus musculus, C3H 10T1/2), the IC50 was in the range of 10 to 100 nM.
Consider `O=C(CC(O)(C(F)(F)F)C(F)(F)F)N1CC(S(=O)(=O)N2CCC(c3c[nH]c4ncccc34)CC2)C1` [Compound 333, 4,4,4-trifluoro-3-hydroxy-1-[3-[[4-(1H-pyrrolo[2,3-b]pyridin-3-yl)-1-piperidyl]sulfonyl]azetidin-1-yl]-3-(trifluoromethyl)butan-1-one], for which, at SMO, the “Ratio of potency in SMO binding assay to potency in C3H10T1/2 cellular assay” value (from here on “Ratio of potency in SMO binding assay”) was 2.5. Moreover, the 50% inhibitory concentration (IC50) in the experiment on C3H10T1/2 cells (Mus musculus, C3H 10T1/2) was 10 to 100 nM.
The matching figures for `O=C(CC(O)(C(F)(F)F)C(F)(F)F)N1CC(S(=O)(=O)N2CCC(c3coc4cccnc34)CC2)C1` [Compound 334, 4,4,4-trifluoro-1-[3-(4-furo[3,2-b]pyridin-3-ylpiperidin-1-yl)sulfonylaze-tidin-1-yl]-3-hydroxy-3-(trifluoromethyl) butan-1-one]: 2.6 and 10 to 100 nM.
Consider `Cc1ccc2c(C3CCN(S(=O)(=O)C4CN(C(=O)OC(C)(C)C)C4)CC3)c[nH]c2n1` [Compound 347, tert-butyl 3-[4-(6-methyl-1H-pyrrolo [2,3-b]pyridin-3-yl)piperidin-1-yl]sulfonylaze-tidine-1-carboxylate], for which, at SMO, the “Ratio of potency in SMO binding assay” value is recorded as 3.8. Moreover, the IC50 in the experiment on C3H10T1/2 cells (Mus musculus, C3H 10T1/2) lay in the range of 10 to 100 nM.
On the same counts, the results for `C[C@](O)(C(=O)N1CC(S(=O)(=O)N2CCC(c3c[nH]c4ncccc34)CC2)C1)C(F)(F)F` [Compound 388, (2S)-3,3,3-trifluoro-2-hydroxy-2-methyl-1-[3-[4-(1H-pyrrolo[2,3-b]pyridin-3-yl)piperidin-1-yl]sulfonylaze-tidin-1-yl]propan-1-one] are 5.4 and 10 to 100 nM.
On the same counts, the results for `C[C@](O)(C(=O)N1CC(S(=O)(=O)N2CCC(c3coc4cccnc34)CC2)C1)C(F)(F)F` [Compound 395, (2S)-3,3,3-trifluoro-1-[3-(4-furo[3,2-b]pyridin-3-ylpiperidin-1-yl)sulfonyl-azetidin-1-yl]-2-hydroxy-2-methylpropan-1-one] are 2.6 and 100 to 1000 nM.
The matching figures for `CC(C)(C)C(=O)CN1CC(S(=O)(=O)N2CCC(c3ccc(Cl)cc3)CC2)C1` [Compound 396, 1-[3-[4-(4-chlorophenyl)piperidin-1-yl]sulfonylaze-tidin-1-yl]-3,3-dimethylbutan-2-one]: 2.5 and 100 to 1000 nM.
As to `CC(C)(O)CC(=O)N1CC(S(=O)(=O)N2CCC(c3c[nH]c4ncccc34)CC2)C1` [Compound 397, 3-hydroxy-3-methyl-1-[3-[4-(1H-pyrrolo[2,3-b]pyridin-3-yl)piperidin-1-yl]sulfonylaze-tidin-1-yl]butan-1-one], the “Ratio of potency in SMO binding assay” value on SMO was 3.6. Moreover, the 50% inhibitory concentration (IC50) in the experiment with C3H10T1/2 cells (Mus musculus, C3H 10T1/2) fell in the range of 100 to 1000 nM.
The matching figures for `O=C(CC(O)(C(F)(F)F)C(F)(F)F)N1CC(S(=O)(=O)N2CCC(c3ccncc3)CC2)C1` [Compound 401, 4,4,4-trifluoro-3-hydroxy-1-[3-(4-pyridin-4-ylpiperidin-1-yl)sulfonylaze-tidin-1-yl]-3-(trifluoromethyl) butan-1-one]: 3.0 and 100 to 1000 nM.
The matching figures for `CC(C)(C)OC(=O)N1CC(S(=O)(=O)N2CCC(c3ccnc4ccccc34)CC2)C1` [Compound 410, tert-butyl 3-(4-quinolin-4-ylpiperidin-1-yl)sulfonylaze-tidine-1-carboxylate]: 3.1 and 100 to 1000 nM.
